Measurements from patent US9469650B2, “Melampomagnolide B derivatives” (BOARD OF TRUSTEES OF THE UNIVERSITY OF ARKANSAS, priority 2013, dated 2016).

Key:
RXF 393 = assay: panel of 60 human tumor cell lines, growth inhibition (Renal Cancer); conditions: Homo sapiens
SF-539 = assay: panel of 60 human tumor cell lines, growth inhibition (CNS Cancer); conditions: Homo sapiens
HCC-2998 = assay: panel of 60 human tumor cell lines, growth inhibition (Colon Cancer); conditions: Homo sapiens
IGROV1 = assay: panel of 60 human tumor cell lines, growth inhibition (Ovarian Cancer); conditions: Homo sapiens
NCI-H460 = assay: panel of 60 human tumor cell lines, growth inhibition (Non-Small Cell Lung Cancer); conditions: Homo sapiens
SNB-19 = assay: panel of 60 human tumor cell lines, growth inhibition (CNS Cancer); conditions: Homo sapiens
UO-31 = assay: panel of 60 human tumor cell lines, growth inhibition (Renal Cancer); conditions: Homo sapiens
MDA-MB-435 = assay: panel of 60 human tumor cell lines, growth inhibition (Melanoma); conditions: Homo sapiens
ACHN = assay: panel of 60 human tumor cell lines, growth inhibition (Renal Cancer); conditions: Homo sapiens
MCF7 = assay: panel of 60 human tumor cell lines, growth inhibition (Breast Cancer); conditions: Homo sapiens
SK-OV-3 = assay: panel of 60 human tumor cell lines, growth inhibition (Ovarian Cancer); conditions: Homo sapiens
T-47D = assay: panel of 60 human tumor cell lines, growth inhibition (Breast Cancer); conditions: Homo sapiens, T47D
NCI-H23 = assay: panel of 60 human tumor cell lines, growth inhibition (Non-Small Cell Lung Cancer); conditions: Homo sapiens
BT-549 = assay: panel of 60 human tumor cell lines, growth inhibition (Breast Cancer); conditions: Homo sapiens
MOLT-4 = assay: panel of 60 human tumor cell lines, growth inhibition (Leukemia); conditions: Homo sapiens
HCT-15 = assay: panel of 60 human tumor cell lines, growth inhibition (Colon Cancer); conditions: Homo sapiens
SK-MEL-5 = assay: panel of 60 human tumor cell lines, growth inhibition (Melanoma); conditions: Homo sapiens
NCI-H322M = assay: panel of 60 human tumor cell lines, growth inhibition (Non-Small Cell Lung Cancer); conditions: Homo sapiens
HOP-92 = assay: as above; conditions: Homo sapiens

Structure (SMILES): C=C1C(=O)O[C@H]2[C@H]1CC/C(COC(=O)NCCCCCCO)=C\CC[C@@]1(C)O[C@@H]21 [JVM 2-31]
- GI50 (RXF 393; RXF 393, RXF 393, NCI five dose): 1.24 µM
- CC50 (RXF 393; RXF 393, read-out: LC50): 40.2 µM
- IC (TGI) (RXF 393; RXF 393, read-out: TGI): 9.75 µM
- GI50 (SF-539; SF-539): 2.42 µM
- CC50 (SF-539; SF-539, read-out: LC50): 34.8 µM
- IC (TGI) (SF-539; SF-539, read-out: TGI): 8.33 µM
- GI50 (HCC-2998; HCC 2998): 15.6 µM
- CC50 (HCC-2998; HCC 2998, read-out: LC50): 61.9 µM
- IC (TGI) (HCC-2998; HCC 2998, read-out: TGI): 31.1 µM
- GI50 (IGROV1; IGROV-1): 17.4 µM
- CC50 (IGROV1; IGROV-1, read-out: LC50): 80.7 µM
- IC (TGI) (IGROV1; IGROV-1, read-out: TGI): 37.5 µM
- GI50 (NCI-H460; NCI-H460): 20.3 µM
- CC50 (NCI-H460; NCI-H460, read-out: LC50): > 100 µM
- IC (TGI) (NCI-H460; NCI-H460, read-out: TGI): 51.2 µM
- GI50 (SNB-19; SNB-19): 16.7 µM
- CC50 (SNB-19; SNB-19, read-out: LC50): > 100 µM
- IC (TGI) (SNB-19; SNB-19, read-out: TGI): 51.3 µM
- GI50 (UO-31; UO-31): 5.91 µM
- CC50 (UO-31; UO-31, read-out: LC50): 62.6 µM
- IC (TGI) (UO-31; UO-31, read-out: TGI): 21.2 µM
- GI50 (MDA-MB-435; MDA-MB-435): 4.45 µM
- CC50 (MDA-MB-435; MDA-MB-435, read-out: LC50): 70.9 µM
- IC (TGI) (MDA-MB-435; MDA-MB-435, read-out: TGI): 20.2 µM
- GI50 (ACHN): 3.21 µM
- CC50 (ACHN; read-out: LC50): 49.6 µM
- IC (TGI) (ACHN; read-out: TGI): 13.6 µM
- GI50 (MCF7; MCF7, MCF7, NCI five dose): 4.92 µM
- CC50 (MCF7; MCF7, read-out: LC50): 76.3 µM
- IC (TGI) (MCF7; MCF7, read-out: TGI): 12 µM
- GI50 (SK-OV-3; SK-OV-3): 28.6 µM
- CC50 (SK-OV-3; SK-OV-3, read-out: LC50): > 100 µM
- IC (TGI) (SK-OV-3; SK-OV-3, read-out: TGI): 69.9 µM
- GI50 (T-47D): 2.78 µM
- CC50 (T-47D; read-out: LC50): 87.9 µM
- IC (TGI) (T-47D; read-out: TGI): 10 µM
- GI50 (NCI-H23; NCI-H23): 13.5 µM
- CC50 (NCI-H23; NCI-H23, read-out: LC50): 72 µM
- IC (TGI) (NCI-H23; NCI-H23, read-out: TGI): 31.1 µM
- GI50 (BT-549; BT-549): 2.86 µM
- CC50 (BT-549; BT-549, read-out: LC50): 43.4 µM
- IC (TGI) (BT-549; BT-549, read-out: TGI): 17.4 µM
- GI50 (MOLT-4; MOLT-4): 5.33 µM
- CC50 (MOLT-4; MOLT-4, read-out: LC50): > 100 µM
- IC (TGI) (MOLT-4; MOLT-4, read-out: TGI): 26.6 µM
- GI50 (HCT-15; HCT-15): 2.56 µM
- CC50 (HCT-15; HCT-15, read-out: LC50): 49.5 µM
- IC (TGI) (HCT-15; HCT-15, read-out: TGI): 12.1 µM
- GI50 (SK-MEL-5; SK-MEL-5): 6.8 µM
- CC50 (SK-MEL-5; SK-MEL-5, read-out: LC50): 54.5 µM
- IC (TGI) (SK-MEL-5; SK-MEL-5, read-out: TGI): 21.7 µM
- GI50 (NCI-H322M): 32.2 µM
- CC50 (NCI-H322M; read-out: LC50): > 100 µM
- IC (TGI) (NCI-H322M; read-out: TGI): 89 µM
- GI50 (HOP-92; HOP-92, HOP-92, NCI five dose): 2.77 µM
- CC50 (HOP-92; HOP-92, read-out: LC50): 38.5 µM
- IC (TGI) (HOP-92; HOP-92, read-out: TGI): 9.99 µM
